# Reference: patent US20180008573A1, “METHODS AND COMPOSITIONS FOR REDUCING DAMAGE ASSOCIATED WITH OXIDATIVE PHOSPHORYLATION” (USANA Health Sciences, Inc., priority 2016, published 2018)
# Columns and labels:
# C. elegans strain CB5586 = test: C. elegans phenotypic lifespan screening (Kaplan-Meier, Log-Rank, Fisher's Exact Test); assay type: in vivo; settings: for restricted mean lifespan, # of Days: DMSO control 13.23
# Protocol: Dilutions of the test formulations were applied to individual populations of C. elegans and the lifespan of each population was monitored. Any changes in the lifespan of an individual population compared to a control population were recorded and correlated to the respective test formulation (N356 or N357) and the respective dilution (0.1 mg/ml, 1 mg/ml, and 10 mg/ml).
# The […] and N357 formulations were each prepared as individual 100 mg/ml stock solutions in dimethyl sulfoxide (DMSO). Serial dilutions of each stock solution were then prepared at 0.1 mg/ml, 1 mg/ml, and 10 mg/ml in DMSO. Control solutions of DMSO only were also prepared. Synchronous aged adult populations of C.elegans strain CB5586 worms were prepared. The CB5586 strain comprises a pharyngeal GFP (green fluorescent protein) tag and a mutation in the bus-5 gene. The pharyngeal GFP tag allows for fluorescent images of the worm populations to be taken. The mutation in the bus-5 gene causes the loss of normal cuticle antigens that permits the cuticle of the worms to become permeable to the test formulations and allow direct uptake of the test formulations to avoid interaction of the test formulations with protective mechanisms of the gut channel. Each serial dilution of each test formulation was added to a separate population of the prepared worms. The control solutions were also added to separate populations of the prepared worms. The populations of the prepared worms were then maintained on standard nematode growth media (NGM) agar plates at 20° C. with sufficient food (Escherichia coli strain OP-50).
# Each worm population was then monitored by fluorescent imaging to determine the number of living and dead worms as a function of time. The fluorescent imaging was analyzed by software that recognized and counted worms based on their fluorescent intensity compared to background fluorescence. […] The ability to distinguish between living and dead worms allowed the number of living worms and cumulative number of dead worms to be monitored against time. Worm populations from a selection of fluorescent images were manually checked to verify that the software had accurately counted the number of living and dead worms.
# The counts of the living and dead worms as a function of time were then analyzed for each of the worm populations and used to prepare Kaplan-Meier survival curves and associated statistics for each of the worm populations. […] The median lifespan is shown as the length of time after the last mitotic division that 50% of the test population remains viable when compared to the control population. The maximum lifespan extension is shown as the length of time after the last mitotic division that 5% of the test population remains viable when compared to the control population.
# The counts of the living and dead worms as a function of time and the Kaplan-Meier survival curves and the associated statistics were then analyzed for each of the worm populations. The analysis included determining mean and median lifespan. The analysis included a non-parametric test, the Log-Rank test, that compares two survival functions for the overall lifespan assay and provides a reliable p-value summarizing the whole experiment. The analysis also included Fisher's Exact Test that calculated the significance of survival function comparisons at multiple specific time points throughout the experiment, rather than for the overall lifespan. The results of the analysis are shown below in Tables 10-17.
# Phenotypic screening was carried out as described in EXAMPLE 2 for various individual compounds of the N357 formulation. […] Alpha lipoic acid was sourced from PureBulk USA as a racemic mix of R and S stereoisomers and was assigned a sample number of N198. Hesperidin was sourced from Sigma Aldrich at ≧80% purity and was assigned a sample number of N347. […]
# NF-κB reporter cells = test: Live cell multiplex assay in the NF-κB antagonist assay; assay type: cell-based, human
# Protocol: A vehicle control was prepared.
# human NF-κB = test: NF-κB antagonist reporter assay (NF-κB GRE-luciferase, HEK293 cells); assay type: cell-based;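 note: reporter cells carry native NF-κB receptor with firefly luciferase under upstream response elements, with a vehicle control included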
smiles,measurement,setting,value
"C[C@@H]1O[C@@H](OC[C@H]2O[C@@H](Oc3c(-c4ccc(O)c(O)c4)oc4cc(O)cc(O)c4c3=O)[C@H](O)[C@@H](O)[C@@H]2O)[C@H](O)[C@H](O)[C@H]1O [N346, rutin hydrate]",decrease of lifespan,C. elegans strain CB5586; 0.1 mg/ml,about 9%
same,population age in days at 25% mortality,C. elegans strain CB5586; 0.1 mg/ml,9 days
same,population age in days at 50% mortality,C. elegans strain CB5586; 0.1 mg/ml,11 days
same,population age in days at 75% mortality,C. elegans strain CB5586; 0.1 mg/ml,14 days
same,population age in days at 90% mortality,C. elegans strain CB5586; 0.1 mg/ml,18 days
same,% Change in Mean Lifespan,C. elegans strain CB5586; 0.1 mg/ml vs. DMSO control,−8%
same,"restricted mean lifespan, # of Days",C. elegans strain CB5586; 0.1 mg/ml,12.03 days
same,population age in days at 25% mortality,C. elegans strain CB5586; 10 mg/ml,11 days
same,population age in days at 50% mortality,C. elegans strain CB5586; 10 mg/ml,14 days
same,population age in days at 75% mortality,C. elegans strain CB5586; 10 mg/ml,16 days
same,"restricted mean lifespan, # of Days",C. elegans strain CB5586; 10 mg/ml,13.43 days
"O=C(O[C@@H]1Cc2c(O)cc(O)cc2O[C@@H]1c1cc(O)c(O)c(O)c1)c1cc(O)c(O)c(O)c1 [EGCG, epigallocatechin gallate]",NF-κB % Live Cell,NF-κB reporter cells; 0.033 μg/ml active ingredient,102%
same,NF-κB % Live Cell,NF-κB reporter cells; 0.098 μg/ml active ingredient,101%
same,NF-κB % Live Cell,NF-κB reporter cells; 0.30 μg/ml active ingredient,105%
same,NF-κB % Live Cell,NF-κB reporter cells; 0.89 μg/ml active ingredient,104%
same,NF-κB % Live Cell,NF-κB reporter cells; 2.67 μg/ml active ingredient,106%
same,NF-κB % Live Cell,NF-κB reporter cells; 8 μg/ml active ingredient,107%
same,NF-κB % Inhibition,human NF-κB; 0.033 μg/ml active ingredient,10%
same,NF-κB % Inhibition,human NF-κB; 0.098 μg/ml active ingredient,18%
same,NF-κB % Inhibition,human NF-κB; 0.30 μg/ml active ingredient,0.10%
same,NF-κB % Inhibition,human NF-κB; 0.89 μg/ml active ingredient,8.4%
same,NF-κB % Inhibition,human NF-κB; 2.67 μg/ml active ingredient,−15%
same,NF-κB % Inhibition,human NF-κB; 8 μg/ml active ingredient,−29%
